Consider 1 compound from patent publication US10322184B2, “Emulsions for intrapulmonary delivery” (Carnegie Mellon University, priority 2016, dated 2019).

This test has as its system Pseudomonas aeruginosa. The test can be described thus: Agar well diffusion assessment of emulsified tobramycin availability (effective tobramycin concentration). In kind it is cell-based. The following applies: aqueous standard solution, 37° C., 24 hours. The protocol:
The presence and availability of emulsified tobramycin was quantified via the commonly used agar well diffusion method of measuring antibiotic content. In this method, the surface of LB agar plates is inoculated with 500 μL of mid-log growth Pseudomonas aeruginosa in tryptic soy broth. Similar methods are disclosed in Omri et al. Pulmonary Retention of Free and Liposome-Encapsulated Tobramycin after Intratracheal Administration in Uninfected Rats and Rats Infected with Pseudomonas aeruginosa. Antimicrobial Agents and Chemotherapy. 1994, 38: 1090-1095. […] Following this evaluation, the effects of Vaq and Caq were assessed using emulsions with Cfs=2 mg/mL H2O of FSH-PEG, Vaq=0.5-2.5%, and Caq=40-200 mg/mL. […]
For each formulation evaluated, approximately 10 mL of emulsion was prepared in a 15-mL centrifuge tube and allowed to sit at room temperature without agitation for five minutes before sampling. […] Following incubation, circular inhibition zones produced by tobramycin that had diffused into the agar were imaged and measured. Interpolation from the inhibition zones of aqueous standard solutions was then used to determine effective tobramycin concentrations (i.e., the aqueous tobramycin concentration resulting in an identical inhibition area) for each emulsion evaluated. […] Three separate trials were performed for each emulsion formulation evaluated. […]

`NC[C@H]1O[C@H](O[C@H]2[C@H](O)[C@@H](O[C@H]3O[C@H](CO)[C@@H](O)[C@H](N)[C@H]3O)[C@H](N)C[C@@H]2N)[C@H](N)C[C@@H]1O` [tobramycin]: the “Aqueous tobramycin concentration producing the smallest measurable inhibition zone” value came to 5 µg/mL.
